Measured values: PMC8397418, “Novel Bis-Thiazole Derivatives: Synthesis and Potential Cytotoxic Activity Through Apoptosis With Molecular Docking Approaches” (Frontiers in Chemistry, 2021)
“Also recorded” adds a separate entry of the source. Like-named read-outs stand apart in the source and are kept apart here. Values belong to the compound of their own block, whether it stands above or below them.

Columns and labels:
[1] = test system: MCF-7 breast cancer cells; assay: MTT cytotoxicity assay, MCF-7; type: cell-based, human; settings: read-out: IC50 MCF-7 (Breast)
Method: (§1) The synthesized derivatives were screened for their cytotoxic activities against five cancer cell lines (two breast cancer cell lines: MCF-7 and MDA-MB-231, two ovarian cancer cell lines: A2780 and KF-28, and one cervical cancer cell line: Hela). This study was performed using serial concentrations of 25, 50, 100, 150, and 200 µM of each compound using the MTT assay. Percentages of cell viability of the tested compounds with serial concentration against the tested panel of cell lines are depicted in Figure 1, in which there is a decrease in the cell viability with increasing concentrations in a dose–response pattern. […] Therefore, compounds 5a, 5b, and 5f were thought worthwhile to further investigate their effects as either cytotoxic or antiproliferative effects and whether any of them is an inducer of apoptotic cell death in the representative cancer cell lines KF-28 and A2780.
(§2) The human ovarian serous carcinoma cell line KF-28 was kindly provided by Prof. Yoshihiro Kikuchi (Department of Obstetrics and Gynecology, National Defense Medical College, Saitama, Japan), and A2780 cell line was purchased from the ECACC (ECACC 93112519). The cells were maintained in RPMI-1640 (Sigma-Aldrich, United States). The cervical cancer cell line, Hela cells, breast cancer cell line, MCF-7, and MDA-MB-231 were purchased from the ATCC and cultured in DMEM. Both types of media were supplemented with 2 mM L-glutamine (Lonza, Belgium), 10% FBS (Sigma, St. Louis, MO, United States), and 1% penicillin/streptomycin (Lonza, Belgium). All cells were incubated at 37°C in 5% CO2 atmosphere (NuAire). All cancer cell lines were cultured according to the routine tissue culture work as discussed by the Freshney group ([Freshney, 2010]). The cells were plated at a density of 5,000 cells in triplicates in a 96-well plate. On the next day, the cells were treated with the indicated compound(s) at the indicated concentrations in a final volume of 100 μL media. Cell viability was assessed after 72 h using MTT solution (Promega) ([Mosmann, 1983]). 20 μL of the reagent was added to each well, the plate was incubated for 3 h, […] was subsequently measured (570 nm) using a plate reader, and then the IC50 values were calculated using Excel ([Tantawy et al., 2020]).

[2] = test system: MDA-MB-231 breast cancer cells; assay: MTT cytotoxicity assay, MDA-MB-231; type: cell-based; settings: Homo sapiens, read-out: IC50 MDA-MB-231 (Breast)
Method: as §1, §2

[3] = test system: Hela cervical cancer cells; assay: MTT cytotoxicity assay, Hela; type: cell-based; settings: Homo sapiens, 72 h
Method: as §1, §2

[4] = test system: A2780 ovarian cancer cells; assay: MTT cytotoxicity assay, A2780; type: cell-based, human; settings: read-out: IC50 A2780 (Ovarian)
Method: as §1, §2

[5] = test system: KF-28 ovarian cancer cells; assay: MTT cytotoxicity assay, KF-28; type: cell-based, human; settings: 72 h, read-out: IC50 KF-28 (Ovarian)
Method: as §1, §2

[6] = test system: MEF normal mouse embryonic fibroblast; assay: MTT cytotoxicity assay, MEF; type: cell-based; settings: n = 3
[7] = test system: C-myc in KF-28 cells; assay: Western blot of C-myc expression; type: cell-based, human; settings: two days, vs DMSO
Source text: Pim-1 has been classified as a weak oncogene. However, a very strong synergism with regard to tumorigenicity occurs between Pim-1 and C-myc. This synergism is observed with bitransgenic mice overexpressing C-myc and Pim-1 in lymphoid tissue ([Möröy et al., 1991]). To further validate the simulation and docking data which introduced Pim-1 kinase as a potential target molecule for some of the tested compounds, we decided to check the effect of treatment with the selected compounds on the C-myc protein expression as a downstream target molecule known to be phosphorylated and stabilized by Pim-1 as a kinase ([Zhang et al., 2008]). […] Taking into consideration the fact that Pim-1 phosphorylates C-myc and controls its stability ([Zhang et al., 2008]) may conclude that the reduction of C-myc expression under the indicated compounds is due to the inhibition of Pim-1 activity (Figure 3). Therefore, the speculated inhibition of Pim-1 is supported by the above-mentioned qPCR data (Figure 3) and further supported by C-myc downregulation. Our results agree with the reported one which states that some thiazole derivatives are potent inhibitors against protein kinases including Pim-1 kinase ([Mohareb et al., 2019]).
Cell lysates were prepared by lysing cells in RIPA buffer (10 mM Tris (pH 7.4), 150 mM NaCl, 1% Triton X-100, 1% Na deoxycholate), supplemented with protease inhibitor cocktail (Sigma). Protein concentration of whole cell lysates was determined by the […] using the BSA kit (Pierce), and then equal protein amounts were heated to 95 °C for 5 min with sodium dodecyl sulfate (SDS) sample buffer (25 ml glycerol, 31.2 ml Tris buffer, 7.5 ml SDS, a dash of bromophenol blue/100 ml) and run on 15% SDS polyacrylamide gel electrophoresis (SDS-PAGE). Protein samples were then blotted onto PVDF membranes (Immobilon P, Watford, United Kingdom). The membranes were incubated in blocking solution (5% non-fat milk in PBS) for 1 h and then in primary antibody (anti-human C-myc pAb (Abcam; at dilution of 2:1,000) or GAPDH mAb (Santa Cruz; at dilution of 20:1,000)) overnight. After 3 × 10 min washes in TBS (0.1% Tween-20 in PBS), the membrane was incubated for 1 h at room temperature with horseradish-peroxidase–linked (HRP) secondary anti-rabbit or anti-mouse Ab (1:1,000 dilution in PBS). Signals on the membrane were developed using ECL reagent (Amersham, CA, United States) and then were imaged with the Chemidoc system (Bio-Rad, United States).

[8] = test system: KF-28 cells; assay: DNA content and cell cycle analysis (PI, flow cytometry); type: cell-based, human; settings: 200 µM, 48 h
Method: Studying the cell cycle phases by measuring DNA content is a crucial test that helps in evaluating the impact of a given drug(s) on dividing cells and may reflect the mechanism through which this drug(s) affects those cells. […] Compounds 5a, 5b, 5c, 5f, 5g, and 9 were added to similar numbers of cells at 200 µM for 48 h, and then, the different cell cycle phases were assessed by flow cytometric analysis.
(§3) The cells were seeded into six-well culture plates (3–5 × 10^5 cells/well) and incubated overnight at 37°C, under 5% CO2. The cells were then treated with indicated compounds for 48 h. Next, media supernatants and the cells were collected and washed with ice-cold PBS. Next, the cells were stained with PI (10 mg/ml) for 30 min and analyzed for DNA contents using flow cytometry analysis using an FL2 (λex/em 535/617 nm) signal detector (ACEA Novocyte™ flow cytometer, ACEA Biosciences, Inc., San Diego, CA, United States). For each sample, 12,000 events are acquired. Cell cycle distribution is calculated using a CytoFLex machine and analyzed by CytExpert software. Flow cytometric methodologies (annexin V/PI staining with cell cycle analyses) are carried out as previously described ([Nafie et al., 2020a]; [Nafie et al., 2020b]; [Gad et al., 2020]).

[9] = test system: KF-28 cells; assay: Annexin V-FITC/PI apoptosis assessment; type: cell-based, human; settings: 48 h, cisplatin 10 μM, DMSO control 0.45%
Method: Therefore, we decided to use such technique to investigate if the cytotoxic effect of the compounds indicated by MTT and the cell cycle experiments is apoptotic cell death or not. For that purpose, two cell lines, KF-28 and A2780, were stained by annexin V/PI after treatment with different compounds vs. DMSO for two days in parallel with cisplatin as a reference drug. Results from annexin staining analysis show appreciated annexin V–stained populations when cells are treated with compounds 5a–c, 5f, and 9. […] Similar results were obtained from the other cell line, A2780, treated with the same compounds (Figure 2B).
as §3

[10] = Homo sapiens, MCF7, MTT, 72 h, n = 3
[11] = MTT, n = 3, read-out: IC50 Hela (Cervical)
[12] = Homo sapiens, A2780, MTT, 72 h, n = 3

Structure (SMILES): CC(=O)c1sc(=NN=C2CCC(=NN=c3[nH]c(C)c(C(C)=O)s3)CC2)[nH]c1C [compound 11, 1,4-Bis((5-acetyl-4-methylthiazol-2-ylidene)hydrazono)cyclohexane]
- melting point: 280 to 281 °C

Structure (SMILES): Cc1[nH]c(=NN=C2CCC(=NN=c3[nH]c(C)c(N=Nc4ccc([N+](=O)[O-])cc4)s3)CC2)sc1N=Nc1ccc([N+](=O)[O-])cc1 [5d, 1,4-Bis((5-(4-nitrophenylazo)-4-methylthiazol-2-ylidene)hydrazono)cyclohexane]
- IC50 ([1]; Homo sapiens, MCF7, 72 h): > 200 µM
- IC50 ([2]; MDA-MB-231, 72 h): > 200 µM
- IC50 ([3]; read-out: IC50 Hela (Cervical)): > 200 µM
- IC50 ([4]; Homo sapiens, A2780, 72 h): > 200 µM
- IC50 ([5]; Homo sapiens): > 200 µM
- melting point: > 300 °C

Structure (SMILES): Cc1ccccc1N=Nc1sc(=NN=C2CCC(=NN=c3[nH]c(C)c(N=Nc4ccccc4C)s3)CC2)[nH]c1C [5e, 1,4-Bis((5-(2-tolylazo)-4-methylthiazol-2-ylidene)hydrazono)cyclohexane]
- IC50 [1, 10]: < 25 µM
- IC50 ([2]; MDA-MB-231, MTT, 72 h, n = 3): > 200 µM
- IC50 [3, 11]: > 200 µM
- IC50 [4, 12]: 70.6 µM
- IC50 ([5]; Homo sapiens, MTT, n = 3): > 200 µM

Structure (SMILES): Cc1[nH]c(=NN=C2CCC(=NN=c3[nH]c(C)c(N=Nc4ccc(Cl)cc4)s3)CC2)sc1N=Nc1ccc(Cl)cc1 [5c, 1,4-Bis((5-(4-chlorophenylazo)-4-methylthiazol-2-ylidene)hydrazono)cyclohexane]
- IC50 ([2]; MDA-MB-231, MTT, 72 h, n = 3): 116 µM
- IC50 [3, 11]: < 25 µM
- IC50 [6]: > 200 µM
- C-myc protein expression (Western blot) [7]: observable downregulation; also recorded: Appreciated downregulation

Structure (SMILES): O=C1CSC(=NN=C2CCC(=NN=C3NC(=O)CS3)CC2)N1 [compound 9, 1,4-Bis((4-oxo-thiazolidin-2-ylidene)hydrazono)cyclohexane]
- IC50 [1, 10]: > 200 µM
- IC50 ([2]; MDA-MB-231, MTT, 72 h, n = 3): > 200 µM
- IC50 [3, 11]: 111 µM
- IC50 [4, 12]: 103 µM
- IC50 ([5]; Homo sapiens, MTT, n = 3): 86.5 µM
- IC50 [6]: 1.06 µM
- Cell cycle phase S population [8]: 6.5%
- Cell cycle phase G1 population ([8]; DMSO control 72%): 78%
- Total apoptotic cell death (annexin V-positive cells) [9]: did not induce appreciated apoptosis

Structure (SMILES): N.N.[Cl][Pt][Cl] [Cisplatin, cisplatin, reference compound]
- IC50 ([1]; MTT, 72 h, n = 3): 1.21 µM
- IC50 ([4]; MTT, 72 h, n = 3): 1.56 µM
- IC50 ([5]; MTT, n = 3): 9.29 µM
- Total apoptotic cell death (annexin V-positive cells) [9]: 25%

Second part, led by results:

- melting point: 241 to 242 °C
Structure (SMILES): O=c1oc2ccccc2cc1-c1csc(=NN=C2CCC(=NN=c3[nH]c(-c4cc5ccccc5oc4=O)cs3)CC2)[nH]1 [13c, 1,4-Bis((4-(3-coumarinyl)thiazol-2-ylidene)hydrazono)cyclohexane]
- IC50 [1, 10]: 178 µM
- IC50 [3, 11]: > 200 µM
- IC50 [4, 12]: 33.5 µM
- IC50 ([5]; Homo sapiens, MTT, n = 3): 85.7 µM

- melting point: > 300 °C
Structure (SMILES): c1ccc2sc(-c3csc(=NN=C4CCC(=NN=c5[nH]c(-c6nc7ccccc7s6)cs5)CC4)[nH]3)nc2c1 [13a, 1,4-Bis((4-(2-benzothiazolyl)thiazol-2-ylidene)hydrazono)cyclohexane]
- IC50 [1, 10]: > 200 µM
- IC50 ([2]; MDA-MB-231, MTT, 72 h, n = 3): > 200 µM
- IC50 [3, 11]: > 200 µM
- IC50 [4, 12]: 27.2 µM
- IC50 ([5]; Homo sapiens, MTT, n = 3): > 200 µM

- melting point: > 300 °C
Structure (SMILES): O=C1NC(=NN=C2CCC(=NN=C3NC(=O)C(=Cc4ccc(Cl)cc4)S3)CC2)SC1=Cc1ccc(Cl)cc1 [14c, 1,4-Bis((5-(4-chlorobenzylidene)-4-oxo-thiazolidin-2-ylidene)hydrazono)cyclohexane]

- melting point: 269 to 270 °C
Structure (SMILES): c1ccc2oc(-c3csc(=NN=C4CCC(=NN=c5[nH]c(-c6cc7ccccc7o6)cs5)CC4)[nH]3)cc2c1 [13b, 1,4-Bis((4-(2-benzofuryl)thiazol-2-ylidene)hydrazono)cyclohexane]

- melting point: 230 to 231 °C
Structure (SMILES): Clc1ccc(-c2csc(=NN=C3CCC(=NN=c4[nH]c(-c5ccc(Cl)cc5)cs4)CC3)[nH]2)cc1 [13d, 1,4-Bis((4-(4-chlorophenyl)thiazol-2-ylidene)hydrazono)cyclohexane]
- IC50 [1, 10]: > 200 µM
- IC50 [3, 11]: > 200 µM

- melting point: 290 to 291 °C
Structure (SMILES): O=C1NC(=NN=C2CCC(=NN=C3NC(=O)C(=Cc4ccc(Br)cc4)S3)CC2)SC1=Cc1ccc(Br)cc1 [14d, 1,4-Bis((5-(4-bromobenzylidene)-4-oxo-thiazolidin-2-ylidene)hydrazono)cyclohexane]

- melting point: 269 to 270 °C
Structure (SMILES): Cc1ccc(C=C2SC(=NN=C3CCC(=NN=C4NC(=O)C(=Cc5ccc(C)cc5)S4)CC3)NC2=O)cc1 [14b, 1,4-Bis((5-(4-methylbenzylidene)-4-oxo-thiazolidin-2-ylidene)hydrazono)cyclohexane]

- melting point: > 300 °C
Structure (SMILES): O=C1NC(=NN=C2CCC(=NN=C3NC(=O)C(=Cc4ccccc4)S3)CC2)SC1=Cc1ccccc1 [14a, 1,4-Bis((5-benzylidene-4-oxo-thiazolidin-2-ylidene)hydrazono)cyclohexane]
